Reference: patent US11649255B2, “Indazoles as hematopoietic progenitor kinase 1 (HPK1) inhibitors and methods using same” (1st Biotherapeutics, Inc., priority 2020, dated 2023)

Biological target: recombinant human HPK1 (Homo sapiens (Human), UniProt Q92918)
Test: HPK1 kinase assay (ADP-Glo)
Assay type: biochemical
Conditions: 25 μM ATP, MBP substrate
How it was run: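 Activity was read as ADP formed, detected by ADP-Glo luminescence after the reaction of 5 ng recombinant human HPK1 with MBP and ATP (stocks 0.5 μg/μl and 25 μM) for 40 min at 30 °C. Buffer was Tris pH 7.5 with MgCl2, BSA and DTT, with compound in 0.5% DMSO. IC50 came from inhibition curves.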

Sequence of recombinant human HPK1 (Q92918 whole entry): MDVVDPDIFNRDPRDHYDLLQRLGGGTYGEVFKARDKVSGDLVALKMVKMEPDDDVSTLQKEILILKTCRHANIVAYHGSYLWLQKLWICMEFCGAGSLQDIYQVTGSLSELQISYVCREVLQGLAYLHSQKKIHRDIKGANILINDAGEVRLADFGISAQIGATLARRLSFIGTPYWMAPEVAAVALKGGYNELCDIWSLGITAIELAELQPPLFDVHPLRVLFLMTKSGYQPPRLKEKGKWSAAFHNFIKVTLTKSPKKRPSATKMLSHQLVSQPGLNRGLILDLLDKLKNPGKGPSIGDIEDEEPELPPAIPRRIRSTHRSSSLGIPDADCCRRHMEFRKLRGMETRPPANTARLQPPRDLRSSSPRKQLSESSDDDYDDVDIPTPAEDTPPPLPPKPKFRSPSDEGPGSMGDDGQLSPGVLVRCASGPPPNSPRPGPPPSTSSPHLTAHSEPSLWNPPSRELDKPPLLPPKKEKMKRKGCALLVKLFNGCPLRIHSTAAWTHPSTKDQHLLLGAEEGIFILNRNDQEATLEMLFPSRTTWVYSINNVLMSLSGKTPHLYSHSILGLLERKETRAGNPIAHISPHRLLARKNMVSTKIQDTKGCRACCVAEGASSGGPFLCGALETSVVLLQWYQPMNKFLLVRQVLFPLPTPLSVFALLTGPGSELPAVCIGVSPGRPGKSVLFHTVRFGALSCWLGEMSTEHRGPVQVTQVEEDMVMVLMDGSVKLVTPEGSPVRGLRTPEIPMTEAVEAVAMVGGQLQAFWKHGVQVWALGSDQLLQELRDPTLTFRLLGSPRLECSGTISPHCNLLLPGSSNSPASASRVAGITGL

O=C(Nc1cc2cc(-c3c(Cl)c(F)c(Cl)c4[nH]ncc34)ccn2n1)[C@@H]1C[C@@H]1F [Example 476, (1S,2S)-N-(5-(5,7-dichloro-6-fluoro-1H-indazol-4-yl)pyrazolo[1,5-a]pyridin-2-yl)-2-fluorocyclopropane-1-carboxamide]
IC50: < 100 nM

Cc1c(F)c(C)c2[nH]ncc2c1-c1ccn2nc(NC(=O)[C@@H]3C[C@@H]3F)cc2c1 [Example 477, (1S,2S)-2-fluoro-N-(5-(6-fluoro-5,7-dimethyl-1H-indazol-4-yl)pyrazolo[1,5-a]pyridin-2-yl)cyclopropane-1-carboxamide]
IC50: < 100 nM

CP(C)(=O)c1c(F)c(Cl)c(-c2ccn3nc(NC(=O)[C@@H]4C[C@@H]4F)cc3c2)c2cn[nH]c12 [Example 478, (1S,2S)-N-(5-(5-chloro-7-(dimethylphosphoryl)-6-fluoro-1H-indazol-4-yl)pyrazolo[1,5-a]pyridin-2-yl)-2-fluorocyclopropane-1-carboxamide]
IC50: 501 to 1000 nM

Cc1c(F)c(Cl)c2[nH]ncc2c1-c1ccn2nc(NC(=O)[C@@H]3C[C@@H]3F)cc2c1 [Example 479, (1S,2S)-N-(5-(7-chloro-6-fluoro-5-methyl-1H-indazol-4-yl)pyrazolo[1,5-a]pyridin-2-yl)-2-fluorocyclopropane-1-carboxamide]
IC50: < 100 nM

O=C(Nc1cc2cc(-c3c(Cl)c(F)c(Br)c4[nH]ncc34)ccn2n1)[C@@H]1C[C@@H]1F [Example 480, (1S,2S)-N-(5-(7-bromo-5-chloro-6-fluoro-1H-indazol-4-yl)pyrazolo[1,5-a]pyridin-2-yl)-2-fluorocyclopropane-1-carboxamide]
IC50: < 100 nM

Cc1c(F)c(F)c2[nH]ncc2c1-c1ccn2nc(NC(=O)[C@@H]3C[C@@H]3F)cc2c1 [Example 481, (1S,2S)-N-(5-(6,7-difluoro-5-methyl-1H-indazol-4-yl)pyrazolo[1,5-a]pyridin-2-yl)-2-fluorocyclopropane-1-carboxamide]
IC50: < 100 nM

Cc1c(F)c(C(F)(F)F)c2[nH]ncc2c1-c1ccn2nc(NC(=O)[C@@H]3C[C@@H]3F)cc2c1 [Example 482, (1S,2S)-2-fluoro-N-(5-(6-fluoro-5-methyl-7-(trifluoromethyl)-1H-indazol-4-yl)pyrazolo[1,5-a]pyridin-2-yl)cyclopropane-1-carboxamide]
IC50: < 100 nM

C=Cc1cc(C)c(-c2ccn3nc(NC(=O)[C@@H]4C[C@@H]4F)cc3c2)c2cn[nH]c12 [Example 483, (1S,2S)-2-fluoro-N-(5-(5-methyl-7-vinyl-1H-indazol-4-yl)pyrazolo[1,5-a]pyridin-2-yl)cyclopropane-1-carboxamide]
IC50: < 100 nM

CSc1c(F)c(Cl)c(-c2ccn3nc(NC(=O)[C@@H]4C[C@@H]4F)cc3c2)c2cn[nH]c12 [Example 485, (1S,2S)-N-(5-(5-chloro-6-fluoro-7-(methylthio)-1H-indazol-4-yl)pyrazolo[1,5-a]pyridin-2-yl)-2-fluorocyclopropane-1-carboxamide]
IC50: < 100 nM

CS(=O)(=O)c1c(F)c(Cl)c(-c2ccn3nc(NC(=O)[C@@H]4C[C@@H]4F)cc3c2)c2cn[nH]c12 [Example 486, (1S,2S)-N-(5-(5-chloro-6-fluoro-7-(methylsulfonyl)-1H-indazol-4-yl)pyrazolo[1,5-a]pyridin-2-yl)-2-fluorocyclopropane-1-carboxamide]
IC50: < 100 nM

Cc1c(F)c(Br)c2[nH]ncc2c1-c1ccn2nc(NC(=O)[C@@H]3C[C@@H]3F)cc2c1 [Example 487, (1S,2S)-N-(5-(7-bromo-6-fluoro-5-methyl-1H-indazol-4-yl)pyrazolo[1,5-a]pyridin-2-yl)-2-fluorocyclopropane-1-carboxamide]
IC50: < 100 nM

Cc1c(F)c(S(C)(=O)=O)c2[nH]ncc2c1-c1ccn2nc(NC(=O)[C@@H]3C[C@@H]3F)cc2c1 [Example 489, (1S,2S)-2-fluoro-N-(5-(6-fluoro-5-methyl-7-(methylsulfonyl)-1H-indazol-4-yl)pyrazolo[1,5-a]pyridin-2-yl)cyclopropane-1-carboxamide]
IC50: < 100 nM

Cc1c(F)c(N(C)C)c2[nH]ncc2c1-c1ccn2nc(NC(=O)[C@@H]3C[C@@H]3F)cc2c1 [Example 490, (1S,2S)-N-(5-(7-(dimethylamino)-6-fluoro-5-methyl-1H-indazol-4-yl)pyrazolo[1,5-a]pyridin-2-yl)-2-fluorocyclopropane-1-carboxamide]
IC50: < 100 nM

COc1c(F)c(C)c(-c2ccn3nc(NC(=O)[C@@H]4C[C@@H]4F)cc3c2)c2cn[nH]c12 [Example 491, (1S,2S)-2-fluoro-N-(5-(6-fluoro-7-methoxy-5-methyl-1H-indazol-4-yl)pyrazolo[1,5-a]pyridin-2-yl)cyclopropane-1-carboxamide]
IC50: < 100 nM

COc1c(F)c(Cl)c(-c2ccn3nc(NC(=O)[C@@H]4C[C@@H]4F)cc3c2)c2cn[nH]c12 [Example 492, (1S,2S)-N-(5-(5-chloro-6-fluoro-7-methoxy-1H-indazol-4-yl)pyrazolo[1,5-a]pyridin-2-yl)-2-fluorocyclopropane-1-carboxamide]
IC50: < 100 nM

CCOc1c(F)c(Cl)c(-c2ccn3nc(NC(=O)[C@@H]4C[C@@H]4F)cc3c2)c2cn[nH]c12 [Example 493, (1S,2S)-N-(5-(5-chloro-7-ethoxy-6-fluoro-1H-indazol-4-yl)pyrazolo[1,5-a]pyridin-2-yl)-2-fluorocyclopropane-1-carboxamide]
IC50: < 100 nM

CNc1c(F)c(Cl)c(-c2ccn3nc(NC(=O)[C@@H]4C[C@@H]4F)cc3c2)c2cn[nH]c12 [Example 494, (1S,2S)-N-(5-(5-chloro-6-fluoro-7-(methylamino)-1H-indazol-4-yl)pyrazolo[1,5-a]pyridin-2-yl)-2-fluorocyclopropane-1-carboxamide]
IC50: < 100 nM

CN1CCN(c2c(F)c(Cl)c(-c3ccn4nc(NC(=O)[C@@H]5C[C@@H]5F)cc4c3)c3cn[nH]c23)CC1 [Example 495, (1S,2S)-N-(5-(5-chloro-6-fluoro-7-(4-methylpiperazin-1-yl)-1H-indazol-4-yl)pyrazolo[1,5-a]pyridin-2-yl)-2-fluorocyclopropane-1-carboxamide]
IC50: < 100 nM

CCNc1c(F)c(Cl)c(-c2ccn3nc(NC(=O)[C@@H]4C[C@@H]4F)cc3c2)c2cn[nH]c12 [Example 496, (1S,2S)-N-(5-(5-chloro-7-(ethylamino)-6-fluoro-1H-indazol-4-yl)pyrazolo[1,5-a]pyridin-2-yl)-2-fluorocyclopropane-1-carboxamide]
IC50: < 100 nM

CCN(CC)c1c(F)c(Cl)c(-c2ccn3nc(NC(=O)[C@@H]4C[C@@H]4F)cc3c2)c2cn[nH]c12 [Example 497, (1S,2S)-N-(5-(5-chloro-7-(diethylamino)-6-fluoro-1H-indazol-4-yl)pyrazolo[1,5-a]pyridin-2-yl)-2-fluorocyclopropane-1-carboxamide]
IC50: < 100 nM

O=C(Nc1cc2cc(-c3c(Cl)c(F)c(N4CCOCC4)c4[nH]ncc34)ccn2n1)[C@@H]1C[C@@H]1F [Example 498, (1S,2S)-N-(5-(5-chloro-6-fluoro-7-morpholino-1H-indazol-4-yl)pyrazolo[1,5-a]pyridin-2-yl)-2-fluorocyclopropane-1-carboxamide]
IC50: < 100 nM

O=C(Nc1cc2cc(-c3c(Cl)c(F)c(N4CCCC4)c4[nH]ncc34)ccn2n1)[C@@H]1C[C@@H]1F [Example 499, (1S,2S)-N-(5-(5-chloro-6-fluoro-7-(pyrrolidin-1-yl)-1H-indazol-4-yl)pyrazolo[1,5-a]pyridin-2-yl)-2-fluorocyclopropane-1-carboxamide]
IC50: < 100 nM

O=C(Nc1cc2cc(-c3c(Cl)c(F)c(N4CCNCC4)c4[nH]ncc34)ccn2n1)[C@@H]1C[C@@H]1F [Example 500, (1S,2S)-N-(5-(5-chloro-6-fluoro-7-(piperazin-1-yl)-1H-indazol-4-yl)pyrazolo[1,5-a]pyridin-2-yl)-2-fluorocyclopropane-1-carboxamide]
IC50: 101 to 500 nM

O=C(Nc1cc2cc(-c3c(Cl)c(F)c(N4CCC4)c4[nH]ncc34)ccn2n1)[C@@H]1C[C@@H]1F [Example 501, (1S,2S)-N-(5-(7-(azetidin-1-yl)-5-chloro-6-fluoro-1H-indazol-4-yl)pyrazolo[1,5-a]pyridin-2-yl)-2-fluorocyclopropane-1-carboxamide]
IC50: < 100 nM

CN(C)C1CCC(N(C)c2c(F)c(Cl)c(-c3ccn4nc(NC(=O)[C@@H]5C[C@@H]5F)cc4c3)c3cn[nH]c23)CC1 (stereo partly drawn) [Example 502, (1S,2S)-N-(5-(5-chloro-7-((4-(dimethylamino)cyclohexyl)(methyl)amino)-6-fluoro-1H-indazol-4-yl)pyrazolo[1,5-a]pyridin-2-yl)-2-fluorocyclopropane-1-carboxamide]
IC50: < 100 nM

CNC1CCC(N(C)c2c(F)c(Cl)c(-c3ccn4nc(NC(=O)[C@@H]5C[C@@H]5F)cc4c3)c3cn[nH]c23)CC1 (stereo partly drawn) [Example 504, (1S,2S)-N-(5-(5-chloro-6-fluoro-7-(methyl((1R,4R)-4-(methylamino)cyclohexyl)amino)-1H-indazol-4-yl)pyrazolo[1,5-a]pyridin-2-yl)-2-fluorocyclopropane-1-carboxamide]
IC50: < 100 nM

CNC1CCC(N(C)c2c(F)c(Cl)c(-c3ccn4nc(NC(=O)[C@@H]5C[C@@H]5F)cc4c3)c3cn[nH]c23)CC1 (stereo partly drawn) [Example 505, (1S,2S)-N-(5-(5-chloro-6-fluoro-7-(methyl((1S,4S)-4-(methylamino)cyclohexyl)amino)-1H-indazol-4-yl)pyrazolo[1,5-a]pyridin-2-yl)-2-fluorocyclopropane-1-carboxamide]
IC50: < 100 nM

COc1cc(C)c(-c2ccn3nc(NC(=O)[C@@H]4C[C@@H]4F)cc3c2)c2cn[nH]c12 [Example 506, (1S,2S)-2-fluoro-N-(5-(7-methoxy-5-methyl-1H-indazol-4-yl)pyrazolo[1,5-a]pyridin-2-yl)cyclopropane-1-carboxamide]
IC50: < 100 nM

O=C(Nc1cc2cc(-c3c(Cl)c(F)c(OCC4CCCO4)c4[nH]ncc34)ccn2n1)[C@@H]1C[C@@H]1F (stereo partly drawn) [Example 507, (1S,2S)-N-(5-(5-chloro-6-fluoro-7-((tetrahydrofuran-2-yl)methoxy)-1H-indazol-4-yl)pyrazolo[1,5-a]pyridin-2-yl)-2-fluorocyclopropane-1-carboxamide]
IC50: < 100 nM
